CC1(C)COP(=O)(C(C)(O)c2ccccc2)OC1 (configuration not stated)
Details | solubility (mole fraction)
in 1,2-dichloroethane, 278.35 K | 0.00107
in 1,2-dichloroethane, 283.25 K | 0.00117
in 1,2-dichloroethane, 288.45 K | 0.00154
in 1,2-dichloroethane, 293.35 K | 0.00171
in 1,2-dichloroethane, 298.25 K | 0.00218
in 1,2-dichloroethane, 303.15 K | 0.00258
in 1,2-dichloroethane, 308.25 K | 0.00291
in 1,2-dichloroethane, 313.15 K | 0.00359
in 1,2-dichloroethane, 318.05 K | 0.00454
in 1,2-dichloroethane, 322.95 K | 0.00542
in 1,2-dichloroethane, 328.15 K | 0.00651
in 1,2-dichloroethane, 333.25 K | 0.00803
in 1,2-dichloroethane, 338.15 K | 0.00933
in acetone, 278.15 K | 0.00106
in acetone, 283.25 K | 0.00132
in acetone, 288.45 K | 0.0018
in acetone, 293.25 K | 0.0023
in acetone, 298.35 K | 0.0031
in acetone, 303.35 K | 0.00363
in acetone, 308.15 K | 0.00469
in acetone, 313.25 K | 0.00547
in acetone, 318.05 K | 0.00593
in acetone, 323.15 K | 0.00616
in acetonitrile, 283.25 K | 0.00144
in acetonitrile, 288.45 K | 0.00169
in acetonitrile, 293.35 K | 0.00198
in acetonitrile, 298.25 K | 0.00221
in acetonitrile, 303.25 K | 0.00268
in acetonitrile, 308.15 K | 0.00342
in acetonitrile, 313.35 K | 0.00392
in acetonitrile, 318.15 K | 0.0046
in acetonitrile, 323.05 K | 0.00562
in acetonitrile, 327.95 K | 0.00654
in acetonitrile, 333.05 K | 0.00866
in chloroform, 278.25 K | 0.0048
in chloroform, 283.35 K | 0.00547
in chloroform, 288.15 K | 0.00651
in chloroform, 293.05 K | 0.00768
in chloroform, 298.45 K | 0.00866
in chloroform, 303.35 K | 0.00944
in chloroform, 308.15 K | 0.0111
in chloroform, 313.05 K | 0.0128
in chloroform, 317.95 K | 0.0154
in chloroform, 323.15 K | 0.0188
in ethanol, 278.45 K | 0.00558
in ethanol, 283.25 K | 0.00618
in ethanol, 288.15 K | 0.0068
in ethanol, 293.25 K | 0.00786
in ethanol, 298.35 K | 0.00933
in ethanol, 303.05 K | 0.0106
in ethanol, 307.95 K | 0.0125
in ethanol, 313.05 K | 0.014
in ethanol, 318.15 K | 0.0169
in ethanol, 323.05 K | 0.0195
in ethanol, 327.95 K | 0.0239
in ethanol, 333.15 K | 0.0293
in ethanol, 338.05 K | 0.0327
in ethanol, 343.15 K | 0.0374
in ethyl acetate, 297.95 K | 0.00054
in ethyl acetate, 303.35 K | 0.00092
in ethyl acetate, 308.45 K | 0.00131
in ethyl acetate, 313.15 K | 0.00166
in ethyl acetate, 318.05 K | 0.00221
in ethyl acetate, 323.05 K | 0.0024
in ethyl acetate, 328.35 K | 0.00283
in ethyl acetate, 333.25 K | 0.00307
in ethyl acetate, 338.15 K | 0.00336
in ethyl acetate, 342.95 K | 0.0036
in methanol, 283.35 K | 0.0112
in methanol, 288.15 K | 0.0132
in methanol, 293.25 K | 0.0146
in methanol, 298.31 K | 0.0168
in methanol, 303.15 K | 0.0196
in methanol, 307.95 K | 0.0223
in methanol, 313.05 K | 0.0259
in methanol, 317.95 K | 0.0285
in methanol, 323.15 K | 0.0321

— BigSolDB 2.1
